A short description of data set [1]: BALB/c mouse plasma stability assay. Format: in vitro ADME. The settings on record: read-out: estimated half-life in plasma.
In data set [2] the target is T1, HSET in DLD1 4N cells (Homo sapiens, UniProt Q9BW19).
T1 construct: overlapped with the signal from the antibody-probed endogenous HSET protein; endogenous in cells; host or cells: DLD1 4N cells
T1 sequence (Q9BW19 1-673): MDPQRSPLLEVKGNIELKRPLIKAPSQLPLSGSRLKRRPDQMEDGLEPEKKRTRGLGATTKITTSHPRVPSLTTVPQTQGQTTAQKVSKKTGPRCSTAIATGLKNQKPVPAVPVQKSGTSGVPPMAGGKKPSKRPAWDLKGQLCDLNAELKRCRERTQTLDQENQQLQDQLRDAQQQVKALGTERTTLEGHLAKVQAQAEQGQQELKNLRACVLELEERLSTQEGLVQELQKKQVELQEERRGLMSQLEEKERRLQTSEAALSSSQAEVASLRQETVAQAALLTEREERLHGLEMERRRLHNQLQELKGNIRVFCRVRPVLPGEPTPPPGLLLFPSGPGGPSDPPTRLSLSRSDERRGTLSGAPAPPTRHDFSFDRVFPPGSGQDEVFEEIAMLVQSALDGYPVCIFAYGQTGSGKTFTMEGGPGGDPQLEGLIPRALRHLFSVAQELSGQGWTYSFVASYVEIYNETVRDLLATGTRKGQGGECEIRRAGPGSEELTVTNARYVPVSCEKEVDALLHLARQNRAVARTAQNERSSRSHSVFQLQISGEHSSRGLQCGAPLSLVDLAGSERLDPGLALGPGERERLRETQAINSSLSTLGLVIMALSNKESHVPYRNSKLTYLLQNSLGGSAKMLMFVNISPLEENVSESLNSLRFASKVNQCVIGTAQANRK
The data set can be described thus: Click probe localization target engagement imaging in DLD1 4N cells. Format: cell-based. The settings on record: for Average Pixel intensity: DLD1 4N, Tz-Cy5 800nM. The protocol:
(§1) The Cy-5 tetrazine dye selected for this experiment is not cell-permeable, thus fixation and permeabilization of cells were necessary prior to its addition. Experiments were conducted in DLD1 4N cells and, as a negative control, isogenic 2N DLD1 HSET KO cells in which HSET expression was prevented by the disruption of the HSET gene using CRISPR. Cells were treated first with proTAME for 2 h to accumulate mitotic events, followed by treatment with the TCO probe 40 for 45 min. The live cells were then fixed and permeabilized before treatment with the tetrazine-Cy5 dye and incubation to allow the IEDDA reaction to occur. Additionally, the cells were stained for the endogenous HSET protein using indirect immunofluorescence and imaged to observe the fluorescence from both the TCO probe and antibody-labeled HSET. […] A 3 μM concentration of the probe 40 gave an acceptable signal-to-noise ratio of around 2:1. Even under these optimal conditions, some residual uniform cytoplasmic Cy5 signal was observed within the cells. However, a clear Cy5 decoration of the mitotic spindle was seen, which overlapped with the signal from the antibody-probed endogenous HSET protein (Figures 2A and S6). […] We observed a 14–17-fold increase in signal in DLD1 4N cells treated with 40 relative to tetrazine-Cy5 alone. […] Comparing the intensity of click probe labeling coincident with the mitotic spindle in DLD1 4N cells to that in DLD1 HSET KO cells after both were treated with 40, we observed a twofold higher signal in the former.
(§2) Direct target engagement of active inhibitor 36 was measured by calculating its capacity to displace the TCO-containing probe 40. 4N DLD1 cells and DLD1 HSET KO cells (negative control) were plated in 96-well ibidi μ-Clear plates (IB-89626, ibidi). Cells were first treated for 2 h with 8 μM pro-TAME (I-440–01M, R&D system) to accumulate mitotic cells and were then treated with 8 μM MG-132 (S2619, SelleckChem) and 3 μM 40, alone or together with active inhibitor 36 in DMEM media with 1% FBS for 45 min. Cells were then washed three times in DMEM, with the second wash being incubated for 10 min to ensure the optimal reduction of unspecific compound binding. After an additional PBS wash, cells were then fixed in 4% PFA/PBS (15670799, Thermo Scientific) prior to incubation with 400 nM tetraszine-Cy5 (CLK-015-05, Jena Biosciences) in 1.5% FBS/PBS for 10 min at room temperature. Cells were permeabilized by the addition of 0.5% TritonX-100/PBS for 5 min before being stained overnight for Pericentrin (1:1500 ab28144 mouse anti-PCNT, Abcam) and KIFC1 (1:1500 12313S rabbit anti-KIFC1, Cell Signaling Technologies). Secondary antibodies Alexa Fluor 488 donkey antirabbit and Alexa Fluor 555 donkey antimouse (1:1500, A21206 and A31570, respectively, Life Technologies) were added together with 1 μg/mL DAPI (D9542, Sigma) in 1.5% FBS in PBS.
(§3) Plates were imaged at 40× using a Zeiss LSM980 confocal microscope with Airyscan 2. The subsequent analysis and quantification were performed using 3D image segmentation with the Arivis4D software. Mitotic cells were segmented by selecting for the highest density (integrated DAPI intensity/total volume), and the mitotic pole areas were segmented using the Pericentrin signal. The signal of the click probe (Cy5) and total KIFC1 (FITC) was measured on the mitotic pole area, and both were normalized to the control condition containing 40 probe alone. The ratio of probe per target (click probe pole integrated intensity signal/KIFC1 pole integrated intensity signal) was used to calculate the occupancy of the probe in the target protein and normalized to the control condition containing 40 probe alone (n > 100 for each replicate, two replicates per concentration point).

The test system of data set [3] is DLD1 HSET KO cells. The data set can be described thus: Click probe localization imaging in DLD1 HSET KO cells (negative control). Format: cell-based, human. The settings on record: DLD1 HSET KO, Tz-Cy5 800nM. How it is done: as §1, §2, §3
The mark [4] stands for this setting: 5μM, Panel A: 3 quick washes at room temperature.
[5] abbreviates: 5μM, Panel B: 2 quick washes then 1 at 37 °C for 5 minutes.
[6] abbreviates: 5μM, Panel C: 2 quick washes then 1 at 37 °C for 10 minutes.
Setting [7] is: 10μM, Panel A: 3 quick washes at room temperature.
[8] abbreviates: 10μM, Panel B: 2 quick washes then 1 at 37 °C for 5 minutes.
[9] abbreviates: 10μM, Panel C: 2 quick washes then 1 at 37 °C for 10 minutes.

Molecules are shown by their SMILES.

`CCCOC(=O)c1sc(NC(=O)CCNC(=O)c2cccc(-c3noc(C)n3)c2)nc1C` [Compound 32, Propyl 4-Methyl-2-(3-(3-(5-methyl-1,2,4-oxadiazol-3-yl)benzamido)propanamido)thiazole-5-carboxylate]: the half-life in data set [1] was 3.58 h.

Regarding `CCCOC(=O)c1sc(NC(=O)C[C@H](CCCN(C)C)NC(=O)c2cccc(-c3noc(C)n3)c2)nc1C` [Compound 36, Propyl (S)-2-(6-(Dimethylamino)-3-(3-(5-methyl-1,2,4-oxadiazol-3-yl)benzamido)hexanamido)-4-methylthiazole-5-carboxylate], the “displacement of TCO probe 40 from HSET in cells (in words)” value in data set [2] (competition with 3 μM 40, up to 10 μM 36) was “dose-dependent manner”.

Consider `CCCOC(=O)c1sc(NC(=O)C[C@H](CCCN(C)C(=O)O[C@@H]2CC/C=C/CCC2)NC(=O)c2cccc(-c3noc(C)n3)c2)nc1C` [Compound 38, Propyl 2-((S)-6-(((((S,E)-Cyclooct-4-en-1-yl)oxy)carbonyl)(methyl)amino)-3-(3-(5-methyl-1,2,4-oxadiazol-3-yl)benzamido)hexanamido)-4-methylthiazole-5-carboxylate], for which the “Average Pixel intensity” value in data set [2] (setting [4]) is on record as 5372; in data set [2] (setting [5]) it was 6057; in data set [2] (setting [6]) it was 4723; in data set [2] (setting [7]) it was 7167; in data set [2] (setting [8]), 7628; in data set [2] (setting [9]), 6337. The “Average Pixel intensity” value in data set [3] (setting [4]) stood at 799; in data set [3] (setting [5]), 752; in data set [3] (setting [6]), 702; in data set [3] (setting [7]), 1464; in data set [3] (setting [8]), 1121; in data set [3] (setting [9]), 803.

Values taken from PMC9969401, “Discovery of 2-(3-Benzamidopropanamido)thiazole-5-carboxylate Inhibitors of the Kinesin HSET (KIFC1) and the Development of Cellular Target Engagement Probes” (Journal of Medicinal Chemistry, 2023).
